# “And” between values parts separate entries of the source, which are not always exact repeats. Identical values can stand only once. “Also recorded” adds a separate entry of the source. Like-named read-outs stand apart in the source and are kept apart here.
# What was measured:
# [1] = test system: Plasmodium falciparum clone D10; assay: Antimalarial activity in vitro, hypoxanthine incorporation, clone D10; type: cell-based
# Procedure: (§1) The antimalarial activity of the compounds was determined essentially as described in Desjardins et al. supra. Fifty Al of various concentrations of a compound of the invention, chloroquine, or pyrimethamine were added to the wells of microtiter plates, followed by 200 Al of ring-stage, synchronized, P. falciparum-infected erythrocytes (final hematocrit=1.5%, final parasitemia=1-5%). The plates were incubated for 24 hr in a candle jar kept at 37° C., and then 25 μl of [^3 H]-hypoxanthine (Amersham, Arlington Heights, Ill.; 2.5 μl Ci/well) was added. The plates were then incubated for a further 24 hr, before harvesting onto Unifilter-96 GF/C filter-microplates (Packard; Meriden, Conn.). Twenty-five μl of Microscint scintillation fluid (Packard) was added to each well of the filter-microplate, which was subsequently counted in a Top-count microplate scintillation counter (Packard). The percent of [^3 H] -hypoxanthine uptake relative to control infect-erythrocytes was used to determine the IC50 value for the compounds by non-linear regression for LD50 determination.
# [2] = test system: Plasmodium falciparum clone Dd2; assay: Antimalarial activity in vitro, hypoxanthine incorporation, clone Dd2; type: cell-based; details: Plasmodium falciparum
# Procedure: as §1
# The Dd2 clone of P. falciparum, which was both chloroquine and pyrimethamine resistant, was utilized to compare the antimalarial activity of the remaining CNI compounds (Table VIII).
# [3] = test system: Plasmodium falciparum clone FCR-3; assay: Antimalarial activity in vitro, hypoxanthine incorporation, clone FCR-3; type: cell-based
# Procedure: as §1
# [4] = test system: Plasmodium falciparum clone HB3; assay: Antimalarial activity in vitro, hypoxanthine incorporation, clone HB3; type: cell-based
# Procedure: as §1
# [5] = test system: Plasmodium falciparum clone W2mef; assay: Antimalarial activity in vitro, hypoxanthine incorporation, clone W2mef; type: cell-based
# Procedure: as §1
# [6] = Toxicity study: median lethal dose in mice, i.p.; type: in vivo; details: mouse, in vivo, ip
# Procedure: (§2) The doses of compounds of the invention found to be lethal to 50% of the mice (LD50) were determined by intraperitoneal injection of groups of five animals with increasing doses of each compound. CNI-0294 was administered from 0, 2, 10, 20, 40, 80, 160, 320, 640, 1280 mg/kg in 0.5 ml of water/HCl; CNI-1594 at 0, 2.4, 5, 10, 20, 40, 80 mg/kg in 0.5 ml of water/HCl; CNI-1794 at 0, 20, 50, 80 mg/kg in 0.5 ml of water/HCl; and CNI-1894 at 0, 10, 20, 40, 80, 240, 480, 960 mg/kg in water/HCl. […] The percentage of animals in each group which died were utilized to calculate the LD50 by non-linear curve fitting with the Enzfit software (Elsevier Bioscience; Cambridge, UK) programmed with the Chou equation (Chou 1976, J Theor Biol 39:253-276)).
# (§3) The compounds (FIGS. 4A-E), were screened for toxicity via a modified LD50 assay procedure as described above in an outbred strain of mice.
# mice = assay: Toxicity study: median lethal dose in mice, i.p.; type: in vivo
# Procedure: as §2, §3
# in vitro = in vitro ADME, mouse (ND4 Swiss Webster)
# Procedure: Several female ND4 Swiss Webster mice were euthanized by carbon dioxide inhalation and the livers excised and rinsed with ice cold phosphate buffered saline (pH 7.4). The livers were minced, gently homogenized in 50 mM phosphate buffer (pH 7.4) with a Dounce homogenizer, and centrifuged at 9600×g for 20 min. The post-mitochondrial supernatant was kept, glycerol added to 20%, and frozen at -70° C. in 1.0 ml aliquots until used. For each incubation, 1.0 ml of a 1.0 mg/ml drug solution was added to 3.0 ml of 50 mM phosphate buffer (pH 7.4), 1.0 ml of 2 mg/ml NADPH in 50 mM phosphate (pH 7.4), and 1.0 ml of the post-mitochondrial supernatant. Five hundred μl of each incubate was then immediately transferred to an ice-cold tube to provide the zero-time sample, and addition 500 μl aliquots removed to ice-cold tubes at 8, 15, 30, and 60 min. The samples were then extracted, and analyzed by HPLC as described in section 7.1. Control incubations were also performed where drug or post-mitochondrial supernatant was omitted. […] Peaks in the CNI compound incubations which increased over time, and were not present in control samples lacking the enzyme preparation were treated as putative metabolites.
# Plasmodium falciparum = assay: Antimalarial activity in vitro, hypoxanthine incorporation, series of clones; type: cell-based
# Procedure: as §1
# Plasmodium berghei = assay: Four day suppression test in Plasmodium berghei infected mice; type: in vivo, Plasmodium berghei NYU-2 in female ND4 Swiss Webster mice
# Procedure: FIG. 9. The activity of CNI-0294 against Plasmodium berghei infected mice. Female ND4 Swiss Webster mice were infected with infected erythrocytes and then treated once daily, for four days, with 50 mg/kg CNI-0294, or with distilled water. Six hours after the last dose, thin blood smears were made from each of the animals and the parasitemia was determined. The bars represent the median parasitemia (n=4 for controls and n=5 for treated).
# The antimalarial activity of CNI-0294 in vivo was assessed by infecting female ND4 Swiss Webster mice with 100 μl of Plasmodium berghei NYU-2 infected mouse erythrocytes (50% parasitemia) by intraperitoneal injection. The animals were subsequently injected intraperitoneally once per day on days 1-4 of the infection with 0.5 ml water or 0.5 ml of 50 mg/kg CNI-0294 in water. Four hours after the final injection, small blood samples were taken from the tail, and thin smears stained with Dif-Quick (Baxter, Miami, Fla.). The parasitemia of control and treated animals was enumerated by inspection of at least 1000 erythrocytes in each animal.
# [7] = mouse, in vivo
# Procedure: (§4) Standard addition curves for each test compound were constructed by adding increased amounts of drug to mouse or human A^+ plasma (Long Island Blood Services; Melville, N.Y.). […] The eluted sample was reduced to dryness in a rotary evaporator and resuspended in 1.0 ml Buffer A.
# (§5) Female ND4 Swiss Webster mice (21-24 g) were obtained from Harlan Sprague Dawley (Indianapolis, Ind.) and randomly placed in groups of five in cages with free access to food and water. […] The other CNI compounds were administered intraperitoneally or by oral gavage as a solution in water titrated with sufficient HCl to dissolve the drug. At various time points, ranging from 5 min to 4 days, a single group of animals was euthanized by carbon dioxide inhalation and bled by cardiac puncture using heparin as an anticoagulant. The blood from the five mice in the group was pooled and centrifuged at 14000×g for 10 min. The volume of plasma was measured, and equal volume of Buffer A added, and the mixture extracted and analyzed as described above, except that the dried eluates were resuspended in 200 μl Buffer A and 100 μl was injected onto the high performance liquid chromatography (HPLC) system.
# (§6) The area under the plasma concentration-time curve (AUC) was determined, and bioavailability was measured as AUCoral /AUCi.p.. […] The volume of distribution (VD) was calculated as dose/B, and the total clearance rate (Cltot) calculated as β*VD. Cmax and tmax are the maximal plasma concentration and time of this measurement, respectively.
# in vivo = details: mouse, plasma, 50 mg/kg
# Procedure: as §4, §5, §6
smiles,measurement,setting,value
"CCc1nc(N)nc(N)c1-c1ccc(Cl)cc1 [Pyrimethamine, reference compound]",IC50,"[1]; clone D10, n = 2, read-out: Pyrimethamine IC50",171 ± 24.6 µM
same,IC50,"[2]; DD2, read-out: Pyrimethamine IC50",104 ± 9.79 µM
same,IC50,"[3]; FCR3, clone FCR-3, n = 2, read-out: Pyrimethamine IC50",0.04 ± 0.01 µM
same,IC50,"[4]; clone HB3, n = 2, read-out: Pyrimethamine IC50",8.97 ± 2.75 µM
same,IC50,[5]; read-out: Pyrimethamine IC50,17.8 ± 13.5 µM
"CC(=O)c1cc(Nc2cc(C)[n+](C)c(N)n2)cc(C(C)=O)c1.[Cl-] [CNI-0294, 2-amino-4-(3,5-diacetylphenyl)amino-1,6-dimethylpyrimidinium chloride]",LD50,[6],588 ± 65.8 mg/kg
same,signs and time of toxic reactions / death,mice,no overt signs of toxicity detectable at doses approaching the LD50
same,tolerability,mice,very well tolerated; also recorded: well tolerated
same,number of metabolites,"in vitro; mouse liver post-mitochondrial supernatant, NADPH",three minor and one major metabolite
same,metabolised at 1 h,"in vitro; mouse, liver post-mitochondrial supernatant, 60 min incubation, by peak area, read-out: drug altered (metabolic conversion)",43.5%
same,IC50,"[1]; D10, read-out: CNI-0294 IC50",4 ± 0.41 µM
same,IC50,"[2]; DD2, read-out: CNI-0294 IC50",3.52 ± 0.1 µM
same,IC50,"[2]; DD2, read-out: IC50 ± standard deviation",3.67 ± 0.57 µM
same,IC50,"[3]; FCR3, read-out: CNI-0294 IC50",3.09 ± 0.3 µM
same,IC50,"[4]; HB3, read-out: CNI-0294 IC50",1.79 ± 0.27 µM
same,IC50,[5]; read-out: CNI-0294 IC50,2.29 ± 0.22 µM
same,anti-malarial activity in vitro,Plasmodium falciparum,considerable anti-malarial activity; also recorded: effective against various clones of P. falciparum
same,IC50,"Plasmodium falciparum; Plasmodium falciparum, series of cloned parasites, read-out: median inhibitory concentration (IC50)",1.79 to 4 µM
same,suppression / cure of P. berghei infection,Plasmodium berghei; 50 mg/kg i.p. daily for 4 days,strongly suppress P. berghei infection in mice; also recorded: not completely cured
same,reduction of parasitemia,"Plasmodium berghei; 50 mg/kg i.p. once daily for four days, P≤0.01",10 fold
same,relative bioavailability,[7],6%
same,relative bioavailability,[7]; 50 mg/kg,6%
same,"A (zero time intercept, distribution phase)","[7]; ip, 50 mg/kg",14.00 and 16.07
same,"B (zero time intercept, elimination phase)","[7]; ip, 50 mg/kg",0.07 and 0.05
same,Cltot,"[7]; ip, 50 mg/kg",62.70
same,VD,"[7]; ip, 50 mg/kg",19.80
same,duration of therapeutic plasma concentration (range of P. falciparum IC50),"[7]; ip, 50 mg/kg",approximately one
same,plasma maximal concentration,"[7]; ip, 50 mg/kg",18.76 to 18.93 µg/mL
same,t1/2α,"[7]; ip, 50 mg/kg",0.62 and 0.40
same,t1/2β,"[7]; ip, 50 mg/kg",4.62 and 3.65
same,tmax,"[7]; ip, 50 mg/kg",5
same,α,"[7]; ip, 50 mg/kg",1.12 and 1.74
same,β,"[7]; ip, 50 mg/kg",0.19
same,Bioavaliability,"[7]; po, 50 mg/kg",0.06
same,time drug was detectable in plasma,"[7]; po, 50 mg/kg",at least 6 hr
same,CL/F,in vivo; ip,35.4 mL/min
same,Cmax,in vivo; ip,18800 ng/mL
same,Vd/F,in vivo; ip,14.1 L
same,k el,in vivo; ip,4.17e-05 s⁻¹
same,Cmax,in vivo; po,400 ng/mL

# From patent US5840893A, “Compounds for treating infectious diseases” (priority 1996, dated 1998)
